According to ChEMBL document CHEMBL5543174, “A Nonbactericidal Anionic Antimicrobial Peptide Provides Prophylactic and Therapeutic Efficacies against Bacterial Infections in Mice by Immunomodulatory-Antithrombotic Duality” (J Med Chem, 2024):
The source made the active and inactive calls. The rule behind the calls is not given here.

Experiments:
Staphylococcus aureus [1] = experiment: Antibacterial activity against Methicillin-resistant Staphylococcus aureus infected in C57BL/6 mouse assessed as reduction in IL-1beta level in peritoneal fluid at 10 mg/kg,ip administrated 5 hrs after bacterial infection measured after 24 hrs by ELISA; type: functional, organism-based; details: time 19.0 hrs
[2] = test system: Peritoneal macrophage cell; experiment: Induction of chemotaxis in mouse Peritoneal macrophage assessed as upregulation of CXCL2 production at 100 ug/ml preincubated with WRW4 followed by compound addition by ELISA; type: functional, cell-based; details: dose 100.0 µg/ml
Escherichia coli [3] = experiment: Antibacterial activity against Carbapenem-resistant Escherichia coli infected in C57BL/6 mouse assessed as reduction in IL-6 level in serum at 10 mg/kg,ip pre-administrated 5 hrs before bacterial infection measured after 24 hrs by ELISA; type: functional, organism-based; details: time 29.0 hrs
Mus musculus [4] = experiment: Inhibition of fibrin formation in mouse infected with Methicillin-resistant Staphylococcus aureus assessed as reduction in fibrin deposition in lung at 10 mg/kg,ip administrated 5 hrs after bacterial infection measured after 24 hrs by immunohistochemical analysis; type: functional, organism-based; details: time 19.0 hrs
Staphylococcus aureus [5] = experiment: Antibacterial activity against Methicillin-resistant Staphylococcus aureus infected in C57BL/6 mouse assessed as reduction in IL-1beta level in peritoneal fluid at 10 mg/kg,ip pre-administrated 5 hrs before bacterial infection measured after 24 hrs by ELISA; type: functional, organism-based; details: time 29.0 hrs
Staphylococcus aureus [6] = experiment: Antibacterial activity against Staphylococcus aureus ATCC 25923 infected in C57BL/6 mouse assessed as reduction in IL-6 level in peritoneal fluid at 10 mg/kg,ip pre-administrated 5 hrs before bacterial infection measured after 24 hrs by ELISA; type: functional, organism-based; details: time 29.0 hrs
Escherichia coli [7] = experiment: Antibacterial activity against Carbapenem-resistant Escherichia coli infected in C57BL/6 mouse assessed as increase in survival rate at 10 mg/kg,ip pre-administrated 5 hrs before bacterial infection measured after 7 days; type: functional, organism-based; details: time 7.0 day
Neutrophil = experiment: Induction of chemotaxis in mouse bone marrow derived neutrophil assessed as increase in neutrophil migration at 25 to 100 ug/ml incubated for 8 hrs by crystal violet staining based direct transwell assay; type: functional, cell-based; details: dose 25-100 µg/ml
Mus musculus [8] = experiment: Inhibition of fibrin formation in mouse infected with Methicillin-resistant Staphylococcus aureus assessed as reduction in fibrin deposition in lung at 10 mg/kg,ip pre-administrated 5 hrs before bacterial infection measured after 24 hrs by immunohistochemical analysis; type: functional, organism-based; details: time 29.0 hrs
Escherichia coli [9] = experiment: Antibacterial activity against Escherichia coli ATCC 25922 infected in C57BL/6 mouse assessed as reduction in IL-1beta level in serum at 10 mg/kg,ip pre-administrated 5 hrs before bacterial infection measured after 24 hrs by ELISA; type: functional, organism-based; details: time 29.0 hrs
Mus musculus [10] = experiment: Immunomodulatory activity in cyclophosphamide immunosuppressed C57BL/6 mouse with neutrophil depletion model assessed as change in B-lymphocytes in peritoneal lavage at 10 mg/kg,ip administration measured after 5 to 24 hrs by flow cytometry; type: functional, organism-based; details: time 5-24 hrs
Peritoneal macrophage [11] = experiment: Immunomodulatory activity in mouse Peritoneal macrophage assessed as decrease in LTA-induced IL-6 production at 25 to 100 ug/ml incubated for 6 hrs by ELISA; type: functional, cell-based; details: dose 25-100 µg/ml
Escherichia coli [12] = experiment: Antimicrobial activity against Escherichia coli ATCC 25922 assessed as inhibition of microbial growth at <= 200 ug/ml incubated for 18 hrs by micro-broth dilution method; type: functional, organism-based; details: dose <= 200.0 µg/ml
Escherichia coli [13] = experiment: Antibacterial activity against Carbapenem-resistant Escherichia coli infected in C57BL/6 mouse assessed as reduction in IL-1beta level in serum at 10 mg/kg,ip pre-administrated 5 hrs before bacterial infection measured after 24 hrs by ELISA; type: functional, organism-based; details: time 29.0 hrs
Escherichia coli [14] = experiment: Antibacterial activity against Escherichia coli ATCC 25922 infected in C57BL/6 mouse assessed as reduction in bacterial load at 10 mg/kg,ip pre-administrated 5 hrs before bacterial infection; type: functional, organism-based
Staphylococcus aureus [15] = experiment: Antimicrobial activity against Staphylococcus aureus ATCC 25923 assessed as reduction in microbial colony forming unit at 200 ug/ml incubated for 1 to 4 hrs by time-kill kinetics based analysis; type: functional, organism-based; details: dose 200.0 µg/ml, time 1-4 hrs
Alcaligenes faecalis = experiment: Antimicrobial activity against Alcaligenes faecalis ATCC 8750 assessed as inhibition of microbial growth at <= 200 ug/ml incubated for 18 hrs by micro-broth dilution method; type: functional, organism-based; details: dose <= 200.0 µg/ml
Mus musculus [16] = experiment: Anticoagulation activity in mouse infected with Carbapenem-resistant Escherichia coli assessed as increase in plasma TFPI expression at 10 mg/kg,ip administrated 5 hrs after bacterial infection measured after 24 hrs by ELISA; type: functional, organism-based; details: time 19.0 hrs
Staphylococcus aureus [17] = experiment: Antibacterial activity against Methicillin-resistant Staphylococcus aureus infected in C57BL/6 mouse assessed as reduction in TNF-alpha level in peritoneal fluid at 10 mg/kg,ip pre-administrated 5 hrs before bacterial infection measured after 24 hrs by ELISA; type: functional, organism-based; details: time 29.0 hrs
Candida albicans = experiment: Antimicrobial activity against Candida albicans ATCC 2002 assessed as inhibition of microbial growth at <= 200 ug/ml incubated for 18 hrs by micro-broth dilution method; type: functional, organism-based; details: dose <= 200.0 µg/ml
Escherichia coli [18] = experiment: Antibacterial activity against Escherichia coli ATCC 25922 infected in C57BL/6 mouse assessed as increase in survival rate at 10 mg/kg,ip pre-administrated 5 hrs before bacterial infection measured after 7 days; type: functional, organism-based; details: time 7.0 day
Escherichia coli [19] = experiment: Antibacterial activity against Carbapenem-resistant Escherichia coli infected in C57BL/6 mouse assessed as reduction in bacterial load at 10 mg/kg,ip pre-administrated 5 hrs before bacterial infection; type: functional, organism-based
Escherichia coli [20] = experiment: Antibacterial activity against Carbapenem-resistant Escherichia coli infected in C57BL/6 mouse with clodronate liposome-induced monocyte depletion model assessed as decrease in bacterial burden in peritoneal cavity at 10 mg/kg,ip administrated 5 hrs after bacterial infection measured after 24 hrs; type: functional, organism-based; details: time 19.0 hrs
Mus musculus [21] = experiment: Immunomodulatory activity in cyclophosphamide immunosuppressed C57BL/6 mouse with neutrophil depletion model assessed as change in T-lymphocytes in peritoneal lavage at 10 mg/kg,ip administration measured after 5 to 24 hrs by flow cytometry; type: functional, organism-based; details: time 5-24 hrs
Escherichia coli [22] = experiment: Antimicrobial activity against Carbapenem-resistant Escherichia coli assessed as reduction in metabolic activity at < 200 ug/ml incubated for 1 to 4 hrs by CCK-8 assay; type: functional, organism-based; details: dose < 200.0 µg/ml, time 1-4 hrs
Plasma = experiment: Anticoagulation activity in human platelet poor plasma assessed as elongation of prothrombin time at 100 ug/ml measured after 5 mins; type: functional, cell-free; details: dose 100.0 µg/ml
Peritoneal macrophage [23] = experiment: Immunomodulatory activity in mouse Peritoneal macrophage assessed as decrease in LPS-induced TNF-alpha production at 25 to 100 ug/ml incubated for 6 hrs by ELISA; type: functional, cell-based; details: dose 25-100 µg/ml
Escherichia coli [24] = experiment: Antibacterial activity against Escherichia coli ATCC 25922 infected in C57BL/6 mouse assessed as reduction in inflammatory injury in lung at 10 mg/kg,ip administrated 5 hrs after bacterial infection measured after 24 hrs by hematoxylin and eosin staining based analysis; type: functional, organism-based; details: time 19.0 hrs
Mus musculus [25] = experiment: Induction of chemotaxis in C57BL/6 mouse assessed as upregulation of MCP-1 expression in peritoneal lavage at 10 mg/kg,ip administration measured at 5 to 24 hrs by ELISA; type: functional, organism-based; details: time 5-24 hrs
Staphylococcus aureus [26] = experiment: Antibacterial activity against Methicillin-resistant Staphylococcus aureus infected in C57BL/6 mouse with clodronate liposome-induced monocyte depletion model assessed as reduction of bacterial burden in peritoneal cavity at 10 mg/kg,ip administrated 5 hrs after bacterial infection measured after 24 hrs; type: functional, organism-based; details: time 19.0 hrs

In the case of CC[C@H](C)[C@H](NC(=O)[C@@H]1CSSC[C@H](NC(=O)[C@H](CCC(=O)O)NC(=O)[C@@H](NC(=O)[C@H](CCCCN)NC(=O)[C@H](Cc2c[nH]cn2)NC(=O)[C@@H](NC(=O)[C@H](CCCCN)NC(=O)[C@H](CCC(=O)O)NC(=O)[C@H](C)NC(=O)[C@H](CCC(=O)O)NC(=O)[C@H](CCC(=O)O)NC(=O)[C@H](CCC(=O)O)NC(=O)[C@H](C)N)[C@@H](C)O)[C@@H](C)O)C(=O)N[C@@H](CC(C)C)C(=O)N[C@@H](CCC(=O)O)C(=O)N1)C(=O)N[C@@H](Cc1ccccc1)C(=O)N[C@H](C(=O)N[C@@H](CC(C)C)C(=O)N[C@@H](CC(C)C)C(=O)N1CCC[C@H]1C(=O)N1CCC[C@@H]1C(=O)N[C@H](C)C(=O)O)[C@@H](C)O, the Activity (Staphylococcus aureus [1]) is reported as “Active”, the Activity [2] is reported as “Active” and the Activity (Escherichia coli [3]) is reported as “Active”. The inhibition (Mus musculus [4]) was “Active”, the Activity (Staphylococcus aureus [5]) was “Active” and the Activity (Staphylococcus aureus [6]) was “Active”. The Activity (Escherichia coli [7]) was “Active”, the Activity (Neutrophil) was “inactive” and the inhibition (Mus musculus [8]) was “Active”. The Activity (Escherichia coli [9]) was “Active”, the Activity (Mus musculus [10]) was “inactive” and the Activity (Peritoneal macrophage [11]) was “inactive”. For the same compound, the Activity (Escherichia coli [12]) was “inactive”, the Activity (Escherichia coli [13]) was “Active” and the Activity (Escherichia coli [14]) was “Active”. The Activity (Staphylococcus aureus [15]) was “inactive”, the Activity (Alcaligenes faecalis) was “inactive” and the Activity (Mus musculus [16]) was “Active”. The Activity (Staphylococcus aureus [17]) was “Active”, the Activity (Candida albicans) was “inactive” and the Activity (Escherichia coli [18]) was “Active”. For the same compound, the Activity (Escherichia coli [19]) was “Active”, the Activity (Escherichia coli [20]) was “inactive” and the Activity (Mus musculus [21]) was “inactive”. The Activity (Escherichia coli [22]) was “inactive”, the Activity (Plasma) was “inactive” and the Activity (Peritoneal macrophage [23]) was “inactive”. The Activity (Escherichia coli [24]) was “Active”, the Activity (Mus musculus [25]) was “inactive” and the Activity (Staphylococcus aureus [26]) was “inactive”.
